Assay results taken from US9393216B2, “Vaginal matrices: nanofibers for contraception and prevention of HIV infection” (priority 2012, dated 2016).
Like-named read-outs stand apart in the source and are kept apart here.

Experiments:
[1] = Drug stability in fibers stored at room temperature; assay type: physicochemical; conditions: PLLA/PEO meshes, at least five months
Protocol: Plates were then digitized using a scanner. Drug loading and stability is measured using fibers stored at room temperature (19-22° C.) for at least five months. […] UV-HPLC is used to quantify amount of drug in samples as previously described. Encapsulation efficiency is calculated as the amount of drug in drug-loaded fibers relative to the amount of drug detected in dissolved blank fibers spiked at 1% (wt/wt) drug loading.

HIV-1 BaL [2] = experiment: HIV-1 BaL infection inhibition assay in TZM-bl cells (luciferase); assay type: cell-based
Protocol: TZM-bl cells and HIV-1 BaL isolate are obtained. TZM-bl cells are a HeLa derived cell line that express CD4, CCR5 and CXCR4. Cells re plated in a black 96-well plate at a density of 5,000 cells/well (Corning, Corning, N.Y.) and maintained in Dulbecco's Modified Eagle Medium (DMEM) (Gibco Life Technologies) with 10% fetal bovine serum (Hyclone), 1% 100× penicillin/streptomycin (Invitrogen) and 1% 200 mM L-glutamine. […] Fibers were sterilized by UV irradiation for one hour per side prior to use. Treatments were added at a volume of 50 μL. […] Percent viability is calculated by normalizing to the average of media control wells (n=9). For composite fabrics, the drug concentration shown applies to both the amount of LNG and of TFV (1:1 ratio). […] Data represents triplicate wells with error bars indicating standard deviation.
Inhibition of infectious activity is quantified by measuring luminescence on a plate reader (Tecan). IC50 values of drug compounds re estimated using sigmoidal regression in Graphpad Prism, version 5.0.
TZM-bl cells and HIV-1 BaL isolate re obtained from the NIH AIDS Research and Reference Reagent Program, Division of AIDS, NIAID, NIH (http://www.aidsreagent.org/). TZM-bL cells, a derived HeLa cell line that expresses CD4, CCR5, and CXCR4, were added to black 96-well plates (Corning, Corning, N.Y.) with Dulbecco's Modified Eagle Medium (DMEM) (Gibco Life Technologies) with 10% fetal bovine serum (Hyclone), 1% 100× penicillin/streptomycin (Invitrogen), and 1% 200 mM L-glutamine (Invitrogen) with […] at a density of 5,000 cells/well. […] Fibers re sterilized by UV irradiation for 2 h (1 h per side). Treatments were added in […]. For the HIV-infectious inhibition assay, […] (240 TCID/well) are added to wells 1 h after drug treatment. […] Infectious activity is quantified by measuring luminescence on a plate reader (Tecan).
TZM-bl cells and HIV-1 BaL isolate re obtained from the NIH AIDS Research and Reference Reagent Program, Division of AIDS, NIAID, NIH (http://www.aidsreagent.org/). TZM-bL cells, a derived HeLa cell line that expresses CD4, CCR5, and CXCR4, are added to black 96-well plates (Corning, Corning, N.Y.) with Dulbecco's Modified Eagle Medium (DMEM) (Gibco Life Technologies) with 10% fetal bovine serum (Hyclone), 1% 100× penicillin/streptomycin (Invitrogen), and 1% 200 mM L-glutamine (Invitrogen) with 50 μL/well at a density of 5,000 cells/well. […] Treatments are diluted serially and randomly assigned to treatments A-E. A second operator, blinded to the identity of the treatments, added each in 50 μL volumes into duplicate wells (n=1 was used for PVP (D) and PEO Tween 20 (E) formulations only due to space limitations on the 96-well plate). 100 μL of HIV-BaL (240 TCID/well) was added to wells 1 h after drug treatment. […] Infectious activity was quantified by measuring luminescence on a plate reader (Tecan).

TZM-bl cells = experiment: Cytotoxicity in TZM-bl cells (CellTiter Blue); assay type: cell-based; conditions: for Cytotoxicity to TZM-bl cells: 48 h exposure to 24 h eluates of PVA fabrics, 20 wt.% theoretical loading
Protocol: TZM-bl cells and HIV-1 BaL isolate are obtained. TZM-bl cells are a HeLa derived cell line that express CD4, CCR5 and CXCR4. Cells re plated in a black 96-well plate at a density of 5,000 cells/well (Corning, Corning, N.Y.) and maintained in Dulbecco's Modified Eagle Medium (DMEM) (Gibco Life Technologies) with 10% fetal bovine serum (Hyclone), 1% 100× penicillin/streptomycin (Invitrogen) and 1% 200 mM L-glutamine. […] Fibers were sterilized by UV irradiation for one hour per side prior to use. Treatments were added at a volume of 50 μL. Cytotoxicity is analyzed using the CellTiter Blue assay (Promega) to assess TZM-bl cell viability after 48 h of exposure to drug eluates from fiber release in cDMEM (24 h release, triplicate wells for each sample). Percent viability is calculated by normalizing to the average of media control wells (n=9). […] Positive control (12.5% DMSO) results in 4.6% viability. Data represents triplicate wells with error bars indicating standard deviation.

[3] = DPV release from PVP and EC fibers; assay type: physicochemical
HIV = conditions: cited from earlier work
[4] = system: human sperm in whole semen; experiment: Sperm viability assay (Trypan blue); assay type: cell-based
Protocol: (§1) Sperm is obtained from two donors for sperm motility experiments. A third donor is recruited for sperm viability assays with glycerol monolaurate. Swim out sperm are obtained as described previously. Briefly, one can place 0.5 mL aliquots of semen below 3 mL of Ham's F-10 media (Sigma-Aldrich) with 0.5% human serum albumin (Sigma-Aldrich) for 75 min in 5% CO2 and 37° C. The aspirate, enriched for motile sperm, was centrifuged at 300 RCF for five min and resuspended in fresh Ham's F-10 to a concentration of 20×10^6 sperm/mL. The effect of drug dilutions on sperm motility are performed both in whole semen and in swimout sperm by adding […] of sperm and drugs to a slide and observing sperm motility with phase contrast either at 200× and 37° C. (ECLIPSE Ti, Nikon), or by adding 200 […] and quantifying sperm motility with computer aided motility analysis for up to 7 min after the addition of drug. Multiple media only controls are run to ensure that any observed change in motility was minimally dependent upon time since ejaculation. Sperm viability was measured by adding 20 […] of Trypan blue (Sigma-Aldrich) and counting 100 live or dead sperm based on head staining after a 10 min incubation using brightfield microscopy.

human swim-out sperm = experiment: Sperm motility assay; assay type: cell-based; conditions: for Inhibition of sperm function: motility of purified (swim-out) human sperm
Protocol: as §1

HIV-1 BaL [5] = conditions: free (unformulated) drug; as reported previously; read-out: IC50 of free TFV; cited from earlier work
[6] = Cumulative release of TFV from PVA fiber meshes at pH 4.3 and pH 7.4; assay type: physicochemical; conditions: pH 4.3 and 7.4, small and large scale
Protocol: FIG. 26. Burst release of TFV within 5 minutes at pH 4.3 and 7.4 is similar for meshes electrospun on small scale and large scales. Graphs display cumulative release of TFV in pH 4.3 citrate buffer (a,c) or pH 7.4 PBS (b,d) for fibers spun on small scale versus large scale instruments for pH adjusted and unadjusted solutions.

[7] = In vitro release of TFV and LNG from PVA fabrics in 1:1 isopropanol:water; assay type: physicochemical
Protocol: Drug loading is analyzed by dissolving approximately 5 mg of fibers in 20 mL of a mixture of 1:1 isopropanol:water in a glass vial. Triplicate samples are allowed to dissolve overnight at 37° C. on a rotational shaker and concentration is quantified using a Shimadzu Prominence LC20AD UV-HPLC system. A Phenomenex Luna C18 column (5 μM, 250×4.6 mm) and LC Solutions software are used to analyze samples.
A method for dual analysis of TFV and LNG is developed using the following gradient method using mobile phase A (0.1% formic acid in water) and mobile phase B (acetonitrile). The run consisted of 0-5 minutes 72% mobile phase A, 5-10 minutes ramp to 15% mobile phase A, 10-20 minutes 15% mobile phase A, 20-25 minutes ramp to 72% mobile phase A, 25-30 minutes 72% mobile phase A. The total method time is 30 minutes, with an oven temperature of 30° C., a flow rate of 1 mL/min, and an injection volume of 20 μL. LNG is detected at 238 nm at a retention time of 18.5 minutes. TFV is detected at 259 nm at a retention time of 2.3 minutes.
In vitro release was analyzed in a 1:1 solution of isopropanol:water due to the limited solubility of LNG in water. Sink conditions were maintained throughout the study for both drugs in the release media. Approximately 5 mg of fibers were prepared in triplicate and an appropriate volume of release media was added to maintain sink conditions of 2.6 mg/mL LNG as has been reported. Samples were incubated at 37° C. on a rotational shaker, and 200 μL samples of release media was taken as indicated. Fresh media was added to replace sample volume at each timepoint.

[8] = Human immunodeficiency virus 1, BAL, TZM-bl, read-out: Final ARV drug concentration at IC50, drugs released from EC fibers (sustained)
[9] = Human immunodeficiency virus 1, BAL, TZM-bl, read-out: Final ARV drug concentration at IC50, drugs released from PVA fibers (pericoital)
[10] = single-drug PVA fibers, calculated for assumed 500 mg of fabric

Compound: Cc1cn([C@H]2C[C@H](N=[N+]=[N-])[C@@H](CO)O2)c(=O)[nH]c1=O [AZT, 3′-azido-3′-deoxythymidine]
- Initially-loaded drug detected in stored fiber meshes [1]: 0.95%
- IC50 (HIV-1 BaL [2]; Human immunodeficiency virus 1, BAL, TZM-bl, read-out: IC50, drug eluted from fibers): 84 nM
- IC50 (HIV-1 BaL [2]; Human immunodeficiency virus 1, BAL, TZM-bl, read-out: IC50, unformulated drug): 120 nM
- Toxicity to TZM-bL cells (TZM-bl cells; compared with media controls): nontoxic

Compound: C[S+](C)[O-] [DMSO]
- Viability, positive control (TZM-bl cells): 4.6%

Compound: Cc1cc(C)c(Nc2ccnc(Nc3ccc(C#N)cc3)n2)c(C)c1 [DPV, dapivirine]
- DPV release characteristics ([3]; from EC fibers): sustained release
- DPV release characteristics ([3]; from PVP fibers): burst-release
- Duration of prevention of localized and disseminated infection posttreatment (HIV): ≤ 6 days

Compound: Cc1cc(C#N)cc(C)c1Oc1nc(Nc2ccc(C#N)cc2)nc(N)c1Br [ETR, etravirine]
- IC50 (HIV-1 BaL [2]; [8]): 2.7 nM
- IC50 (HIV-1 BaL [2]; [9]): 0.7 nM

Compound: CCCCCCCCCCCC(=O)OCC(O)CO (centres unmarked) [GML, glycerol monolaurate]
- Reduction of sperm viability ([4]; 5% (wt/vol)): 33.1%
- Reduction of sperm viability ([4]; concentration not given): 19.6%
- Concentrations that inhibited sperm motility (complete spermiostasis) (human swim-out sperm): 0.05-0.5 % (wt/vol)
- EC50, reduction of sperm motility (human swim-out sperm; at 2 min): 0.005 % wt/vol
- Lowest concentration with reduction in motility (human swim-out sperm; no complete spermiostasis): ≥ 0.00005 % (wt/vol)

Compound: C#C[C@]1(O)CC[C@H]2[C@@H]3CCC4=CC(=O)CC[C@@H]4[C@H]3CC[C@@]21CC [LNG, levonorgestrel]
- Cytotoxicity to TZM-bl cells (TZM-bl cells): induced by high concentrations

Compound: Cc1nnc(C(=O)NC(C)(C)c2nc(C(=O)NCc3ccc(F)cc3)c(O)c(=O)n2C)o1 [RAL, raltegravir]
- IC50 (HIV-1 BaL [2]; [8]): 3.8 nM
- IC50 (HIV-1 BaL [2]; [9]): 1.2 nM

Compound: C[C@H](Cn1cnc2c(N)ncnc21)OCP(=O)(O)O [TFV, tenofovir]
- Cytotoxicity to TZM-bl cells (TZM-bl cells): not
- IC50 (HIV-1 BaL [5]): 1800 nM
- Time of burst release of TFV [6]: ≤ 5 min
- Cumulative mass of drug released after 15 minutes [7, 10]: ~40 mg
- Cumulative mass of drug released after 60 minutes [7, 10]: ~60 mg
- Time to 100% TFV release ([7]; single-drug or 1:1 TFV:LNG PVA fabrics, 20 wt.% theoretical loading): ≤ 30 min

Compound: ferrous D-gluconate [FeGluc]
- Inhibition of sperm function (human swim-out sperm): ineffective

Compound: maraviroc [MVC]
- IC50 (HIV-1 BaL [2]; drugs released from EC fibers (sustained), read-out: Final ARV drug concentration at IC50): 4.2 nM
- IC50 (HIV-1 BaL [2]; drugs released from PVA fibers (pericoital), read-out: Final ARV drug concentration at IC50): 1.6 nM
- IC50 (HIV-1 BaL [2]; eluates released from PLLA/PEO fibers, read-out: IC50, drug eluted from fibers): 2.3 nM
- Globally shared best fit IC50 (HIV-1 BaL [2]; pure maraviroc and maraviroc released from PVP/PEO electrospun formulations): 6.96 ng/mL
- IC50 (HIV-1 BaL [2]; pure maraviroc and maraviroc released from PVP/PEO electrospun formulations, read-out: Globally shared best fit IC50): 13.5 nM
- IC50 (HIV-1 BaL [2]; unformulated, read-out: IC50, unformulated drug): 0.9 nM

Compound: methyl-β-cyclodextrin [MBCD]
- Inhibition of sperm function (human swim-out sperm): ineffective
